Laboratory results from patent publication US20020151534A1, “Antithrombotic compounds” (priority 2001, published 2002).

Target: T1, human factor Xa (Homo sapiens, UniProt P00742)
T1 construct: released from the colourless chromogenic substrate by human factor Xa; purchased Roche
Assay: Inhibition of factor Xa, enzyme-kinetic measurement with chromogenic substrate
Format: biochemical
Conditions: substrate Chromozym X 200 μMol/l, pNA release at 405 nm, pH 8.0, 37° C.
Protocol: Enzyme-kinetic measurement with chromogenic substrate. The quantity of anp-nitroaniline (pNA) released from the colourless chromogenic substrate by human factor Xa is determined photometrically at 405 nm. It is proportional to the activity of the enzyme used. The inhibition of the enzyme activity by the test substance I (in relation to the solvent control) is determined at various concentrations of test substance and from this the IC50 is calculated, as the concentration which inhibits the factor Xa used by 50%.
Tris(hydroxymethyl)-aminomethane buffer (100 mmol) and sodium chloride (150 mMol), pH 8.0
Factor Xa (Roche), spec. activity: 10 U/0.5 ml, final concentration: 0.175 U/ml for each reaction mixture
Substrate Chromozym X (Roche), final concentration: 200 μMol/l for each reaction mixture
10 μl of a 23.5-times concentrated starting solution of the test substance or solvent (control), 175 μl of tris(hydroxymethyl)-aminomethane buffer and 25 μl of a 1.65 U/ml Factor Xa working solution are incubated for 10 minutes at 37° C. After the addition of 25 μl of Chromozym X working solution ([…]) the sample is measured in a photometer (SpectraMax 250) at 405 nm for 150 seconds at 37° C.
1. Determining the maximum increase (deltaOD/minutes) over 3 measuring points.
2. Determining the % inhibition based on the solvent control.
3. Plotting a dosage/activity curve (% inhibition vs substance concentration).
4. Determining the IC50 by interpolating the X value (substance concentration) of the dosage/activity curve at Y=50% inhibition.

T1 sequence (P00742 235-488 limits assumed): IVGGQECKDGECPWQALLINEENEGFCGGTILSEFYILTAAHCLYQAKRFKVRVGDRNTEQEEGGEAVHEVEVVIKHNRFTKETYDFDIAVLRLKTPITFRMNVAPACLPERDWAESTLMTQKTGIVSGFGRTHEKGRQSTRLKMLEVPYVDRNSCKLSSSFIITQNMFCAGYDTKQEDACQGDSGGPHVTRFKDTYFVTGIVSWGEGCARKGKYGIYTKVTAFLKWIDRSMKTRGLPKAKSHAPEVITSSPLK
T1 sequence (P00742 41-179 partner limits assumed): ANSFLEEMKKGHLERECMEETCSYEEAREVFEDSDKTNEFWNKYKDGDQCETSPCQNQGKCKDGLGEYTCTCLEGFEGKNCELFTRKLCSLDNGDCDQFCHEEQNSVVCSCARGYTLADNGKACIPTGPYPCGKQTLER

Row | Structure (SMILES) | IC50 [µM]
1 | Cc1cc(NCCc2cc(C(=N)N)ccc2O)ccc1C(=O)N1CCCC1 [(1)] | 0.084
2 | Cc1cc(C(=O)NCc2cc(C(=N)N)ccc2O)ccc1C(=O)N1CCCC1 [(2)] | 0.014

The next lines start with the values.

Row | IC50 [µM] | Structure (SMILES)
3 | 0.01 | N=C(N)c1ccc(O)c(CNC(=O)c2ccc(C(=O)N3CCCC3)c(Cl)c2)c1 [(4)]
4 | 0.031 | Cc1cc(C(=O)NC(CC(=O)O)c2cccc(C(=N)N)c2)ccc1C(=O)N1CCCC1 (centres unmarked) [(5)]
5 | 0.075 | CCOC(=O)CCC(=O)N(c1ccc(C(=O)NCc2cc(C(=N)N)ccc2O)cc1C)C1CCCC1 [(3)]
